Experimental findings from patent US10821148B2, “Pharmaceutical composition for treating or alleviating an autoimmune disease and/or complication thereof and/or nephritis and method for treating or alleviating an autoimmune disease and/or complication thereof and/or nephritis” (Industrial Technology Research Institute, priority 2016, dated 2020) are described below.

Where two headings read alike, the source gives them in different places.

In assay [1] the test system is IL-17 secretion in peripheral blood leukocytes (PBLs). As to the kind of experiment: Anti-IL-17 secretion screening, peripheral blood leukocyte (PBL) platform. The following applies: rat PBL, PMA + ionomycin, 48 hours. The assay is classed as cell-based. The procedure:
2. Method 2: Anti-IL-17 Secretion Drug Screening Through a Peripheral Blood Leukocyte (PBL) Platform
Blood of SD rat was obtained through saphenous vein sampling. The rat blood was placed in a centrifuge tube containing EDTA (final concentration was 2 mg/ml) and mixed well, and then 4-fold volume of ACK buffer was added to the centrifuge tube to lyse red blood cells. The above-mentioned centrifuge tube was placed in a 37° C. water bath for 5 minutes, and 4 folds volume of PBS buffer was added to the centrifuge tube and the centrifuge tube was centrifuged at a speed of 3000 rpm for 5 minutes, and the supernatant was removed. After that, the steps for lysing red blood cells were repeated twice and an appropriate volume of cell culture medium was added to the centrifuge.
The cells was implanted to a 96-well plate (2×10^5 cells/well), and an appropriate concentration of a drug to be tested was added therein (10 μl/well) and evenly mixed. Next, the 96-well plate was placed in an incubator at 37° C. with 5% CO2 for 1 hour. After that, the stimuli, phorbol-12-myristate-13-acetate (PMA) (final concentration was 30 ng/ml), and ionomycin (final concentration was 1 μg/ml) were added to the 96-well plate. After being evenly mixed, the 96-well plate was placed in an incubator for 48 hours.
After 48 hours of culturing, the 96-well plate was centrifuged at 3000 rpm for 5 minutes to let the cells precipitate and the supernatant (cell-cultured medium) was transferred to a new 96-well plate (about 155 μl/well).
After the cell-cultured medium in the new 96 well plate was 2-4 fold diluted, a rat IL-17 ELISA kit (eBioscience, 88-7170) was used to determine IL-17 content thereof.
For both of cell viability assay and IL-17 content assay, the result of the group adding phorbol-12-myristate-13-acetate (PMA) and ionomycin was set as 100%, and secretion of IL-17 was shown by percentage.

Another assay concerns IL-6. Nature of the assay: Lipopolysaccharide (LPS)-induced acute inflammation in mice, IL-6. The format is in vivo. The following applies: plasma, 1.5 hours after 1 mg/kg LPS IP, BALB/c mice. The source says: (§1) 5. Method 5: Model of Lipopolysaccharide (LPS)-Induced Acute Inflammation in Mice
(§2) 6-8 weeks old male BALB/c mice were purchased from BioLASCO Taiwan Co., Ltd. On the day that the animals entered, the mice were marked, separated into cages, and weighed. Then, the mice were quarantined for one week, and the breeding conditions meet the standards of the National Laboratory Animal Center (Taiwan). During the quarantine, the motility and environmental adaptability of the mice were observed. If the body weights of the mice increased normally, the mice were moved to the breeding region to await the implementation of the experiment.
(§3) Illumination for the breeding region was automatically controlled for 12-hr light-dark cycle, and the temperature was controlled at 23±2° C. The animals were free to obtain sufficient food and water. This strain of animals has had abundant basic reference information and data, and can be suitable for a functional evaluation test for inflammation, and the experimental method had been approved by Institutional Animal Care and Use Committees (IACUC) in the Industrial Technology Research Institute.
(§4) 5.2 Treatment of the Mice
(§5) Before the experiment, the mice were weighed and grouped to make the average body weight for each group has no obvious difference, and the clinical symptoms of the mice were recorded. Two to four hours before the experiment, the mice were fasting, but water was still regularly provided. At a specific time before or after being stimulated by lipopolysaccharides (LPS), the mice were administered a drug to be tested through oral administration, intraperitoneal injection (IP) or intravenous injection (IV), and after the administration, the clinical symptoms of the mice were observed and recorded. […] The mice were stimulated by 1 mg/kg lipopolysaccharides (0.25 ml/mouse) through intraperitoneal injection (IP), and the clinical symptoms of the mice were observed and recorded. […]
TNF-α, IL-6 and MCP-1 secretion amounts in the plasma were analyzed according to the analysis steps of Duoset® ELISA kit, and the steps are summarized as follows: […]

For a further assay, the system named is MCP-1. Nature of the assay: Lipopolysaccharide (LPS)-induced acute inflammation in mice, MCP-1. The following applies: plasma, 1.5 hours after 1 mg/kg LPS IP, BALB/c mice. The format is in vivo.
Excerpt: as §1, §2, §3, §4
Before the experiment, the mice were weighed and grouped to make the average body weight for each group has no obvious difference, and the clinical symptoms of the mice were recorded. Two to four hours before the experiment, the mice were fasting, but water was still regularly provided. At a specific time before or after being stimulated by lipopolysaccharides (LPS), the mice were administered a drug to be tested through oral administration, intraperitoneal injection (IP) or intravenous injection (IV), and after the administration, the clinical symptoms of the mice were observed and recorded. The mice of the control group were administered the same volume of solvent. The mice were stimulated by 1 mg/kg lipopolysaccharides (0.25 ml/mouse) through intraperitoneal injection (IP), and the clinical symptoms of the mice were observed and recorded.
After being stimulated by lipopolysaccharides for 1.5 hours, the mice were euthanized with excess CO2, and then whole blood of the mice was obtained through intra-cardiac puncture.
The whole blood of the mice was centrifuged at 6000 rpm at 4° C. for 10 minutes. After that, plasma was collected, and determinations of TNF-α, IL-6 and MCP-1 secretion amounts in the plasma were performed.
5.3 Determinations of TNF-α, IL-6 and MCP-1 Secretion Amounts
TNF-α, IL-6 and MCP-1 secretion amounts in the plasma were analyzed according to the analysis steps of Duoset® ELISA kit, and the steps are summarized as follows:
At room temperature, a capture antibody mixture solution was added to an ELISA 96 well plate (100 μl/well) to cover the surface of the ELISA 96-well plate. […]

Assay [2] concerns IL-17 secretion in EL4 cells. Nature of the assay: Anti-IL-17 secretion screening, platform of EL4 cells. The format is cell-based, mouse. The following applies: PMA + ionomycin, 18 hours. Here is the method:
8. Method 8: Anti-IL-17 Secretion Drug Screening Through a Platform of EL4 Cells
The EL4 cells were seeded into a 96-well plate (1×10^5 cells/well), and an appropriate concentration of a drug to be tested was added therein (10 μl/well) and evenly mixed.
Next, the 96-well plate was placed in an incubator at 37° C. with 5% CO2 for 1 hour. After that, the stimuli, phorbol-12-myristate-13-acetate (PMA) (final concentration was 10 ng/ml), and ionomycin (final concentration was 5 ng/ml) were added to the 96-well plate. After being evenly mixed, the 96-well plate was placed in an incubator for 18 hours.
After 18 hours of culturing, the 96-well plate was centrifuged at 1200 rpm for 5 minutes to let the cells precipitate and the supernatant (cell-cultured medium) was transferred to a new 96-well plate (about 155 μl/well).
The cell-cultured medium in the new 96-well plate was 2-4 fold diluted and the IL-17 concentration was determined by mouse IL-17 ELISA kit (R&D, DY421E).
For both of cell viability and IL-17 content assays, the results of the group with phorbol-12-myristate-13-acetate (PMA) and ionomycin were set as 100%, and the secretion of IL-17 was expressed by percentage.

The subject of the next assay is TNF-α. Nature of the assay: Lipopolysaccharide (LPS)-induced acute inflammation in mice, TNF-α. The format is in vivo. The following applies: plasma, 1.5 hours after 1 mg/kg LPS IP, BALB/c mice.
Excerpt: as §1
6-8 weeks old male BALB/c mice were purchased from BioLASCO Taiwan Co., Ltd. On the day that the animals entered, the mice were marked, separated into cages, and weighed. Then, the mice were quarantined for one week, and the breeding conditions meet the standards of the National Laboratory Animal Center (Taiwan). During the quarantine, the motility and environmental adaptability of the mice were observed. If the body weights of the mice increased normally, the mice were moved to the breeding region to await the implementation of the experiment. […]
as §5, with “Two to four hours before the experiment, the mice were fasting, but water was still regularly provided.” left out

The next assay relates to NZBWF1/J mice. The assay is classed as in vivo. The following applies: for Survival rate (%): 50 mg/kg, NZBWF1/J mice. The source says: 6. Method 6: NZBWF Autoimmune Animal Model for Systemic Lupus Erythematosus (SLE)
NZBWF1/J female mice were purchased from The Jackson Laboratory, U.S.A, and after animal quarantine, the mice were fed to an appropriate age (about 16 to 25 weeks old).
Before the experiment, mice were randomly grouped according to the antibody to double stranded DNA (dsDNA) value of sera, then the mice were started to administrate test articles. Mice were administrated 5 days a week, and after 10-18 weeks of continuous administration, the mice were sacrificed. During the administration, body weight change was recorded every week, mice urine were collected every 1 to 2 week by gently pressing the abdomens of the mice and the urinary protein content (mg/dl) was determined by test strips and a protein quantitative kit.
After the experiment was completed, the urine was collected and the whole blood of the mice was obtained through intra-cardiac puncture. After that, kidneys of the mice were exteriorized and weighed. The appearance and pathological changes of kidneys were recorded, and the kidneys were preserved in 10% neutral formalin for pathological examinations. The pathological score was determined according to the literature, Shackelford et al. Toxicol. Pathol. 30: 93-96, and shown by a score of 0 to 5: a score of 0 represents not present; a score of 1 represents minimal (<1%); a score of 2 represents slight (1-25%); a score of 3 represents moderate (26-50%); a score of 4 represents moderate/severe (51-75%), and a score of 5 represents severe (76-100%).
6.2 Determination of Protein Content in Urine
The abdomen (bladder) of the mouse was gently pressed every 1 to 2 week to make the mouse urinate and the urine was collected in a 1.5 ml centrifuge tube, the protein content (mg/dl) in the urine was determined by urine test strip. The test strip was moistened with the urine and stood for 1 minute, and the protein content was determined by the color shown by the test strip. […] If the color shown by the test strip is between two color regions, the urinary protein content is determined by the mean of the values represented by the two regions. […]
The contents of blood urea nitrogen (BUN) and creatinine (CRE) in the serum were determined by FUJI DRI-CHEM 4000i biochemistry analyzer, and the steps are summarized as follows:
Before the experiment, the urea nitrogen and creatinine test strips and the serum to be tested were placed at room temperature to back to room temperature. After that, according to the instructions of the analyzer, 10 μl of serum was added to the central portion of the test strip (if the value exceeded the detectable range, the serum was appropriately diluted with sterilized water), and then determined. […]

Consider `COc1c(CC=C(C)C)c(C=O)cc2c1[nH]c1ccccc12` [F3m, indizoline], for which, in assay [1], the “IL-17 inhibition IC50, peripheral blood leukocyte (PBL)” value (“IL-17 inhibition IC50 … (PBL)” for short) was 2.4 µg/mL. Moreover, in the assay with IL-6, the “production of the inflammatory factor IL-6” value is given as “capable of significantly inhibiting the production of the inflammatory factor, IL-6”. Further, the “production of the inflammatory factor MCP-1” value in the assay with MCP-1 is “capable of significantly inhibiting the production of the inflammatory factor, MCP-1”. The “IL-17 inhibition IC50, EL4 cells” value in assay [2] was 2.8 µg/mL.

`CC(C)=CCCC(C)=CCOc1c2occc2cc2ccc(=O)oc12` [F4m, 8-geranyloxypsoralen]: in assay [1], the “IL-17 inhibition IC50 … (PBL)” value was found to be 4.3 µg/mL. Also, the “production of the inflammatory factor TNF-α” value in the assay on TNF-α is “capable of significantly inhibiting the production of the inflammatory factor, TNF-α”. Besides, in the assay on IL-6, the “production of the inflammatory factor IL-6” value is “capable of significantly inhibiting the production of the inflammatory factor, IL-6”. The “production of the inflammatory factor MCP-1” value in the assay with MCP-1 is “capable of significantly inhibiting the production of the inflammatory factor, MCP-1”. The “survival rate of NZBWF1/J mice (in words)” value with NZBWF1/J mice (concluded from HE-07-Fr4 (more than 80% of F4m), Table 10) was “capable of effectively improving the survival rate of NZBWF1/J mice”. The “IL-17 inhibition IC50, EL4 cells” value in assay [2] amounted to 15.9 µg/mL.

Turning to `CC(C)=CCOc1c2occc2cc2ccc(=O)oc12` [F5m, imperatorin], the IC50 turned out to be 20.5 µg/mL in assay [1] (Leukocyte, read-out: IL-17 inhibition IC50, peripheral blood leukocyte (PBL)) and 45 µg/mL in assay [2] (Mus musculus, read-out: IL-17 inhibition IC50, EL4 cells). In addition, in the assay on TNF-α, the “production of the inflammatory factor TNF-α” value is listed as “capable of significantly inhibiting the production of the inflammatory factor, TNF-α”. For the same compound, in the assay on MCP-1, the “production of the inflammatory factor MCP-1” value was “capable of significantly inhibiting the production of the inflammatory factor, MCP-1”.

Take `CC1(C)O[C@@H]1COc1c2occc2cc2ccc(=O)oc12` [F7m, prangenin]: the “IL-17 inhibition IC50 … (PBL)” value in assay [1] was determined as 28.7 µg/mL. In addition, the “IL-17 inhibition IC50, EL4 cells” value in assay [2] was found to be 47.2 µg/mL.

Regarding `O=P1(N(CCCl)CCCl)NCCCO1` (centres unmarked) [cyclophosphamide], the “Survival rate (%)” value was 100% in the assay with NZBWF1/J mice (Table 4 study); 100% in the assay with NZBWF1/J mice (Table 8 study); 100% in the assay on NZBWF1/J mice (Table 10 study, 12 weeks).

Consider ζ-clausenamide [F6m], for which, in assay [1], the “IL-17 inhibition IC50 … (PBL)” value came out at 3.0 µg/mL. Moreover, in the assay with IL-6, the “production of the inflammatory factor IL-6” value is “capable of significantly inhibiting the production of the inflammatory factor, IL-6”. Besides, the “production of the inflammatory factor MCP-1” value in the assay on MCP-1 is recorded as “capable of significantly inhibiting the production of the inflammatory factor, MCP-1”. Further, the “IL-17 inhibition IC50, EL4 cells” value in assay [2] stood at 5.1 µg/mL.

One may read the IC50 as the concentration that inhibits the measured activity by half.
